System: Caco-2 cell monolayers
Test: Permeability across Caco-2 cell monolayers
Format: in vitro ADME
Conditions: Caco-2 monolayers after exposure to test article, 37° C.
Protocol: To test the permeability of dietary fatty acids across Caco-2 cell monolayers, Caco-2 cell monolayers are grown to confluence on collagen-coated, microporous, polycarbonate membranes in 12-well Costar Transwell® plates.
The test article is the aqueous dietary fatty acids formulation, and the dosing concentration is 2 μM in the assay buffer (HBSSg) as in the previous example. Cell monolayers are dosed on the apical side (A-to-B) or basolateral side (B-to-A) and incubated at 37° C. with 5% CO2 in a humidified incubator. Samples are taken from the donor chamber at 120 minutes, and samples from the receiver chamber are collected at 60 and 120 minutes. Each determination is performed in duplicate. Lucifer yellow permeability is also measured for each monolayer after being subjected to the test article to ensure no damage is inflicted to the cell monolayers during the permeability experiment. Permeability of samples of atenolol, propranolol and digoxin are also measured to compare with the permeability of the dietary fatty acids sample. All samples are assayed for dietary fatty acids, or corresponding comparative compounds, by LC/MS/MS using electrospray ionization. The apparent permeability (Papp) and percent recovery are calculated as is known in the art. […]

Papp (post-experiment monolayer integrity control): < 0.8 ×10⁻⁶ cm/s
Substance: Lucifer yellow

Source: US20110054029A1, “WATER-SOLUBLE DIETARY FATTY ACIDS” (priority 2009, published 2011)
